Source: ChEMBL document CHEMBL3232824, “New synthesis of 3-(β-D-glucopyranosyl)-5-substituted-1,2,4-triazoles, nanomolar inhibitors of glycogen phosphorylase” (Eur J Med Chem, 2014)
pKi: −log10 of the molar value. Calls of active or inactive are those of the source. No cut-off for these calls is given here.

These molecules were tested against T1, Glycogen phosphorylase, muscle form (Oryctolagus cuniculus) (UniProt P00489) (assay: Inhibition of rabbit muscle glycogen phosphorylase b at 625 uM).
T1 sequence (whole entry): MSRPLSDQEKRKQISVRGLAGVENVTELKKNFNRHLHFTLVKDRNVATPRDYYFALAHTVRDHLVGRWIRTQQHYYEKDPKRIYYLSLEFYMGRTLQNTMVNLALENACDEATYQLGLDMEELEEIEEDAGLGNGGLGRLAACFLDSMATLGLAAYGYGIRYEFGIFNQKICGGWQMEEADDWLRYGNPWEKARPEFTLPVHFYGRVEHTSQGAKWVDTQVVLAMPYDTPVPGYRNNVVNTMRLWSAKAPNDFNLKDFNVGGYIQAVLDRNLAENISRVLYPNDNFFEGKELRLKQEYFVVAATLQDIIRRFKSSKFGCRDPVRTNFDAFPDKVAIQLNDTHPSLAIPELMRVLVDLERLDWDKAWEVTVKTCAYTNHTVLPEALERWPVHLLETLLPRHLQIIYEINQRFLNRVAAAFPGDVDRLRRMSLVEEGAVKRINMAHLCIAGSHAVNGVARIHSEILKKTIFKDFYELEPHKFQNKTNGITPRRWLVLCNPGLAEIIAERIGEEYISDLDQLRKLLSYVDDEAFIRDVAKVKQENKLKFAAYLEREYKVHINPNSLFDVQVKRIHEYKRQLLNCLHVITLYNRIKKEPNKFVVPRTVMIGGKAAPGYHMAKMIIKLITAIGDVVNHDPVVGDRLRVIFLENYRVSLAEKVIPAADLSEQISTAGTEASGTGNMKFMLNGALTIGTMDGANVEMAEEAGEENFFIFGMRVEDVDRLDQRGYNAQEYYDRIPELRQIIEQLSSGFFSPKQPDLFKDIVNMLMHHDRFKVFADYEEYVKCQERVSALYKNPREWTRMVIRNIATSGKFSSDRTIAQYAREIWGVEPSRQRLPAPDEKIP

SMILES | inhibition
O=C(O)c1ccc(-c2n[nH]c([C@@H]3O[C@H](CO)[C@@H](O)[C@H](O)[C@H]3O)n2)cc1 | inactive
O=[N+]([O-])c1cc(-c2n[nH]c([C@@H]3O[C@H](CO)[C@@H](O)[C@H](O)[C@H]3O)n2)cc([N+](=O)[O-])c1 | inactive
CC(C)(C)c1n[nH]c([C@@H]2O[C@H](CO)[C@@H](O)[C@H](O)[C@H]2O)n1 | inactive

The molecules below were run against T1, Glycogen phosphorylase, muscle form (Oryctolagus cuniculus) (assay: Inhibition of rabbit muscle glycogen phosphorylase b).

SMILES | inhibition
Cc1nc([C@@H]2O[C@H](CO)[C@@H](O)[C@H](O)[C@H]2O)no1 | inactive

Each molecule was assayed against T2, Glycogen phosphorylase, muscle form (Oryctolagus cuniculus, UniProt P00489) (assay: not given).
T2 sequence (P00489 whole entry): T1 sequence (whole entry)

SMILES | pKi
OC[C@H]1O[C@@H](c2nc(-c3ccc4ccccc4c3)no2)[C@H](O)[C@@H](O)[C@@H]1O | 4.92
COc1ccc(-c2n[nH]c([C@@H]3O[C@H](CO)[C@@H](O)[C@H](O)[C@H]3O)n2)cc1 | 5.72
OC[C@H]1O[C@@H](c2nc(-c3ccc(C(F)(F)F)cc3)n[nH]2)[C@H](O)[C@@H](O)[C@@H]1O | 3.95
OC[C@H]1O[C@@H](c2nc(-c3ccc(O)cc3)n[nH]2)[C@H](O)[C@@H](O)[C@@H]1O | 5.54
OC[C@H]1O[C@@H](c2nc3cc4ccccc4cc3[nH]2)[C@H](O)[C@@H](O)[C@@H]1O | 5.68
Cc1n[nH]c([C@@H]2O[C@H](CO)[C@@H](O)[C@H](O)[C@H]2O)n1 | 3.30
CC(C)(C)c1ccc(-c2n[nH]c([C@@H]3O[C@H](CO)[C@@H](O)[C@H](O)[C@H]3O)n2)cc1 | 3.11

Continued, values first:

pKi | SMILES
4.57 | OC[C@H]1O[C@@H](c2nc(-c3ccccc3)no2)[C@H](O)[C@@H](O)[C@@H]1O
3.15 | OC[C@H]1O[C@@H](c2nc(-c3ccccn3)n[nH]2)[C@H](O)[C@@H](O)[C@@H]1O
4.47 | O=[N+]([O-])c1ccc(-c2n[nH]c([C@@H]3O[C@H](CO)[C@@H](O)[C@H](O)[C@H]3O)n2)cc1
5.77 | Cc1ccc(-c2n[nH]c([C@@H]3O[C@H](CO)[C@@H](O)[C@H](O)[C@H]3O)n2)cc1
6.17 | Nc1ccc(-c2n[nH]c([C@@H]3O[C@H](CO)[C@@H](O)[C@H](O)[C@H]3O)n2)cc1
4.40 | Cc1cc(C)cc(-c2n[nH]c([C@@H]3O[C@H](CO)[C@@H](O)[C@H](O)[C@H]3O)n2)c1
4.85 | Nc1cc(N)cc(-c2n[nH]c([C@@H]3O[C@H](CO)[C@@H](O)[C@H](O)[C@H]3O)n2)c1
